Test results from EP2450062A1, “HYDROCOLLOID PLASTERS, INCLUDING VIABLE PROBIOTIC STRAINS OF LACTOBACILLUS SPP. AND USED FOR VARIOUS TYPES OF WOUNDS, INFECTED TISSUES, DRY WOUNDS AND DEEP WOUNDS” (Universidad De Concepcion, priority 2009, dated 2011).

Tested on: Lactobacillus acidophilus LPV 31
Assay: bactericidal effect of glutaraldehyde in the films (bacterial counts)
Conditions: GA concentrations studied, in gelatin films
From the text: The cross-linking agent used is preferably, but not exclusively, glutaraldehyde (GA), due to its high efficiency stabilising collagen derivatives, its high reaction rate, and its ability to modify the physico-chemical properties of gelatin-based gels.

## O=CCCCC=O [GA, glutaraldehyde]
  bactericidal effect: do not have an observable bactericidal effect
